Measurements: ChEMBL document CHEMBL4513134, “CO-ADD screening of University of Queensland (Australia) compounds” (2021)
In brackets after ≈: the same amount, converted by molar mass.

The compounds below were run on HEK293 (assay: cells). Conditions: ASSAY_TEST Inhibition of Cell Viability; detection method Resazurin; Fluorescence (ex560/em590); MEDIA DMEM with 10% FBS; plate type 384well; TC; CORNING #3712; time 18 hr.
Format: functional, Homo sapiens, ATCC CRL1573
`Cc1c(C)n2cc([N+](=O)[O-])nc2c(=O)n1Cc1ccc(OC(F)(F)F)cc1` showed a CC50 greater than 100. For `CC(=O)OCCOc1nc(C)cn2cc([N+](=O)[O-])nc12`, the CC50 was greater than 100. `C[C@H]1COC2(CCN(c3nc(=O)c4cc(C(F)(F)F)cc([N+](=O)[O-])c4s3)CC2)O1` [BTZ-043] was tested, and the CC50 was greater than 100. Compound `O=c1[nH]c(-c2ccc(OC(F)(F)F)cc2)cn2cc([N+](=O)[O-])nc12` has a CC50 greater than 100. Work on `O=C(NO)c1nc([N+](=O)[O-])cn1Cc1ccc(OC(F)(F)F)cc1` yielded a CC50 of 36. `Cc1cn2cc([N+](=O)[O-])nc2c(=O)[nH]1` showed a CC50 greater than 100. Compound `CCOC(=O)c1nc([N+](=O)[O-])c[nH]1` has a CC50 greater than 100. `O=C(O)C(F)(F)F.O=c1nc(N2CCN(CC3CCCCC3)CC2)sc2c([N+](=O)[O-])cc(C(F)(F)F)cc12` gave a CC50 greater than 50. `CC(=O)OCCn1c(C)cn2cc([N+](=O)[O-])nc2c1=O` gave a CC50 greater than 100. For `Cc1cn2cc([N+](=O)[O-])nc2c(=O)n1CCO`, the CC50 was greater than 100. Compound `O=[N+]([O-])c1cn2ccnc(OCCc3ccc(OC(F)(F)F)cc3)c2n1` has a CC50 greater than 100. In the case of `Cc1nc(OCc2ccc(OC(F)(F)F)cc2)c2nc([N+](=O)[O-])cn2c1C`, the CC50 is reported as greater than 100. Compound `CN(C)C(=O)c1nc([N+](=O)[O-])cn1Cc1ccc(OC(F)(F)F)cc1` has a CC50 greater than 100. With `CCOC(=O)c1nc([N+](=O)[O-])cn1Cc1ccc(OC(F)(F)F)cc1` the CC50 was greater than 100. With `Cc1[nH]c(=O)c2nc([N+](=O)[O-])cn2c1C` the CC50 was greater than 100. With `Cc1cn2cc([N+](=O)[O-])nc2c(=O)n1Cc1ccc(OC(F)(F)F)cc1` the CC50 was greater than 100. Work on `NC(=O)c1nc([N+](=O)[O-])cn1CCO` yielded a CC50 greater than 100. In the case of `COc1nc(C)cn2cc([N+](=O)[O-])nc12`, the CC50 is reported as greater than 50. With `Cc1cn2cc([N+](=O)[O-])nc2c(OCc2ccc(OC(F)(F)F)cc2)n1` the CC50 was greater than 100. Compound `NNC(=O)c1nc([N+](=O)[O-])cn1Cc1ccc(OC(F)(F)F)cc1` has a CC50 greater than 100. In the case of `Cc1cn2cc([N+](=O)[O-])nc2c(OCCO)n1`, the CC50 is reported as greater than 100. `CNC(=O)c1nc([N+](=O)[O-])cn1Cc1ccc(OC(F)(F)F)cc1` gave a CC50 greater than 100.

These compounds were tested on Staphylococcus aureus (assay: microbe, parasite or virus in culture). Conditions: ATCC 43300, 18 h, ASSAY_TEST Inhibition of Bacterial Growth, detection method Absorption (OD600), MEDIA CAMHB, plate type 384well, NBS, CORNING #3640.
Description: Antibacterial activity against Staphylococcus aureus MRSA ATCC 43300 (CO-ADD:GP_020); MIC in CAMBH media, using NBS plates, by OD(600)
In the case of `Cc1ccc(CNC(=O)c2nc([N+](=O)[O-])c[nH]2)cc1`, the MIC is reported as 32 µg/mL (≈ 123 µM). `CN(Cc1ccc(OC(F)F)cc1)C(=O)c1ncc([N+](=O)[O-])[nH]1` showed an MIC of 16 µg/mL (≈ 49 µM). `Cc1ccc(CCNC(=O)c2ncc([N+](=O)[O-])[nH]2)cc1` gave an MIC of 32 µg/mL (≈ 117 µM). `O=C(NCc1cccc(OC(F)(F)F)c1)c1ncc([N+](=O)[O-])[nH]1` gave an MIC of 16 µg/mL (≈ 48.5 µM).
